{"source": "patent US20100048397A1", "about": "“GABA/Pesticidal Combinations” (priority 2008, published 2010)", "origin": "cited, not measured here", "key": {"leek seed": {"tested_on": "leek seed", "conditions": "seed treatment, compared with seed treated with fipronil"}, "[1]": {"tested_on": "greenhouse-grown cucumber plants", "conditions": "in vivo"}, "[2]": {"tested_on": "greenhouse-grown tomato plants", "conditions": "in vivo"}}, "data": [{"smiles": "O=[N+]([O-])NC1=NCCN1Cc1ccc(Cl)nc1", "note": "[imidacloprid, (E)-1-(6-chloro-3-pyridylmethyl)-N-nitroimidazolidin-2-ylideneamine]", "values": [{"measurement": "phytotoxicity, germination rate", "setting": "leek seed", "result": "delayed germination rates"}, {"measurement": "phytotoxicity at lowest rate", "setting": "[1]", "result": "caused phytotoxicity symptoms"}, {"measurement": "phytotoxicity at lowest rate", "setting": "[2]", "result": "caused phytotoxicity symptoms"}]}]}
